The test system of one experiment is S. aureus ATCC 33591. In words: Neutropenic mouse thigh infection model. Type of experiment: in vivo. The conditions noted are these: single dose of 50 mg/kg, thigh load at 26 hours. As for the experimental part:
The compound of Formula (III) was next evaluated in a neutropenic mouse thigh infection model against S. aureus ATCC 33591. For the study, mice challenged with S. aureus ATCC 33591 were intravenously administered two 5 mg/kg, 10 mg/kg, 20 mg/kg and 30 mg/kg doses of the compound of Formula (III) at 2 and 4 hours post-infection, or vancomycin as a single dose of 50 mg/kg as a control. The bacterial load in the thigh at 26 hours post-infection was measured.

In the next experiment the test system is MRSA ATCC 33591. The experiment is described as follows: Mouse septicemia model. The conditions noted are these: CD-1 female mice, MRSA ATCC 33591, 2.5 mg/kg intravenous one hour post infection.

Consider `CN[C@H](CC(C)C)C(=O)N[C@H]1C(=O)N[C@@H](CC(N)=O)C(=O)N[C@H]2C(=O)N[C@H]3C(=O)N[C@H](C(=O)N[C@H](C(=O)O)c4cc(O)cc(O)c4-c4cc3ccc4O)[C@H](O)c3ccc(c(Cl)c3)Oc3cc2cc(c3O[C@@H]2O[C@H](CO)[C@@H](O)[C@H](O)[C@H]2O[C@H]2C[C@](C)(N)[C@H](O)[C@H](C)O2)Oc2ccc(cc2Cl)[C@H]1O` [vancomycin], for which, in the experiment with S. aureus ATCC 33591, the “CFU reduction from the 2 hour infection controls” value amounted to 0.54 log10 CFU and the “CFU reduction from the 26 hour infection controls” value amounted to 3.65 log10 CFU. Moreover, the survival entry in the experiment on MRSA ATCC 33591 was “all survived”.

Source of the values: patent publication US11891415B2, “Depsipeptides and uses thereof” (NovoBiotic Pharmaceuticals, LLC, priority 2017, dated 2024).
